This passage reports IC50 results from US10428044B2, “3-amino-1,5,6,7-tetrahydro-4H-indol-4-ones” (Bayer Pharma Aktiengesellschaft, priority 2014, dated 2019).

The term IC50 denotes the concentration that inhibits the measured activity by half.

(recombinant) catalytic domain of human Bub1 (amino acids 704-1085), sequence (O43683 704-1085): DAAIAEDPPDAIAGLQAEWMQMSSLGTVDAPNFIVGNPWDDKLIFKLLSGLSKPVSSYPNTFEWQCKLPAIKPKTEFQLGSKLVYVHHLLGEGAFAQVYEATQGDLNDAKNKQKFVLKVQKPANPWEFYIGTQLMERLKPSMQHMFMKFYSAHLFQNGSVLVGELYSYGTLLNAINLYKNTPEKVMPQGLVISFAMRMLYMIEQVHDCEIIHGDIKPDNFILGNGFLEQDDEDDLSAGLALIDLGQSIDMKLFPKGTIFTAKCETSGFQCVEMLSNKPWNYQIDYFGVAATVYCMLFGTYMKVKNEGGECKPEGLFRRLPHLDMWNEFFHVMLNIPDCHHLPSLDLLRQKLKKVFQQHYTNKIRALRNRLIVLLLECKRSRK

The assay addresses (recombinant) catalytic domain of human Bub1 (amino acids 704-1085) (Homo sapiens (Human), UniProt O43683). Kind of assay: Bub1 kinase assay (TR-FRET). It is filed as biochemical. Particulars: ATP 10 μM final, peptide substrate 1 μM final, 60 min at 22° C., read-out: Biological Assay: Bub1 kinase assay median IC50. How it is done: Examples were tested in selected biological assays one or more times. When tested more than once, data are reported as either average values or as median values, wherein • the average value, also referred to as the arithmetic mean value, represents the sum of the values obtained divided by the number of times tested, and • the median value represents the middle number of the group of values when ranked in ascending or descending order. If the number of values in the data set is odd, the median is the middle value. If the number of values in the data set is even, the median is the arithmetic mean of the two middle values.
To this end, 100-fold concentrated compound solutions (in DMSO) were previously prepared by serial dilution (1:3.4) of 2 mM stocks in a clear low volume 384-well source microtiter plate (Greiner Bio-One, Frickenhausen, Germany), from which 50 nl of compounds were transferred into a black low volume test microtiter plate from the same supplier. […] The resulting mixture (5 μL final volume) was incubated at 22° C. during 60 min., and the reaction was stopped by the addition of 5 μL of an aqueous EDTA-solution (50 mM EDTA, in 100 mM HEPES pH 7.5 and 0.2% (w/v) bovine serum albumin) which also contained the TR-FRET detection reagents (0.2 μM streptavidin-XL665 [Cisbio Bioassays, Codolet, France] and 1 nM anti-phosho-Serine antibody [Merck Millipore, cat. #35-002] and 0.4 nM LANCE EU-W1024 labeled anti-mouse IgG antibody [Perkin-Elmer, product no. AD0077, alternatively a Terbium-cryptate-labeled anti-mouse IgG antibody from Cisbio Bioassays can be used]). The stopped reaction mixture was further incubated 1 h at 22° C. in order to allow the formation of complexes between peptides and detection reagents. Subsequently, the amount of product was evaluated by measurement of the resonance energy transfer from the Eu-chelate-antibody complex recognizing the Phosphoserine residue to the streptavidin-XL665 bound to the biotin moiety of the peptide. […] The data were normalised using two sets of control wells for high- (=enzyme reaction without inhibitor=0%=Minimum inhibition) and low- (=all assay components without enzyme=100%=Maximum inhibition) Bub1 activity. IC50 values were calculated by fitting the normalized inhibition data to a 4-parameter logistic equation (Minimum, Maximum, IC50, Hill; Y=Max+(Min−Max)/(1+(X/IC50)Hill)).
Background: Time-resolved FRET reads energy transfer from a long-lived donor to a nearby acceptor.
Regarding `CC1(C)CC(=O)c2c([nH]c(-c3ccncc3)c2Nc2ccc(F)c(F)c2)C1` [Example 21, 3-[(3,4-difluorophenyl)amino]-6,6-dimethyl-2-(pyridin-4-yl)-1,5,6,7-tetrahydro-4H-indol-4-one], the IC50 turned out to be 13.2 nM. As for `CC1CC(=O)c2c([nH]c(-c3ccncc3)c2Nc2ccccc2)C1` (centres unmarked) [Example 22, 6-methyl-3-(phenylamino)-2-(pyridin-4-yl)-1,5,6,7-tetrahydro-4H-indol-4-one], the figure is 10.5 nM; as for `CC1(C)CC(=O)c2c([nH]c(-c3ccnc(F)c3)c2Nc2cccc(F)c2)C1` [Example 24, 3-[(3-fluorophenyl)amino]-2-(2-fluoropyridin-4-yl)-6,6-dimethyl-1,5,6,7-tetrahydro-4H-indol-4-one], 20.4 nM; as for `CC1(C)CC(=O)c2c([nH]c(-c3ccncc3)c2Nc2ccccn2)C1` [Example 25, 6,6-dimethyl-2-(pyridin-4-yl)-3-(pyridin-2-ylamino)-1,5,6,7-tetrahydro-4H-indol-4-one], 26.3 nM.

For the compound `CC1(C)CC(=O)c2c([nH]c(-c3ccncc3)c2Nc2ccc3ccoc3c2)C1` [Example 26, 3-(1-benzofuran-6-ylamino)-6,6-dimethyl-2-(pyridin-4-yl)-1,5,6,7-tetrahydro-4H-indol-4-one], the IC50 worked out at 32.7 nM. As for `CC1(C)CC(=O)c2c([nH]c(-c3ccnc4[nH]ccc34)c2Nc2ccccc2)C1` [Example 27, 6,6-dimethyl-3-(phenylamino)-2-(1H-pyrrolo[2,3-b]pyridin-4-yl)-1,5,6,7-tetrahydro-4H-indol-4-one], the figure is 43.3 nM; as for `CCC1CC(=O)c2c([nH]c(-c3ccncc3)c2Nc2ccccc2)C1` (centres unmarked) [Example 28, 6-ethyl-3-(phenylamino)-2-(pyridin-4-yl)-1,5,6,7-tetrahydro-4H-indol-4-one], 5.93 nM.

As to `CC(C)CC1CC(=O)c2c([nH]c(-c3ccncc3)c2Nc2ccccc2)C1` (centres unmarked) [Example 29, 6-(2-methylpropyl)-3-(phenylamino)-2-(pyridin-4-yl)-1,5,6,7-tetrahydro-4H-indol-4-one], the half-maximal inhibitory concentration (IC50) was 6.17 nM. The value for `CC1(C)CC(=O)c2c([nH]c(-c3ccncc3F)c2Nc2ccccc2)C1` [Example 30, 2-(3-fluoropyridin-4-yl)-6,6-dimethyl-3-(phenylamino)-1,5,6,7-tetrahydro-4H-indol-4-one] was 5.69 nM; that for `CC1(C)CC(=O)c2c([nH]c(-c3ccncc3)c2Nc2cc(F)cc(F)c2)C1` [Example 31, 3-[(3,5-difluorophenyl)amino]-6,6-dimethyl-2-(pyridin-4-yl)-1,5,6,7-tetrahydro-4H-indol-4-one] was 5.55 nM. For `CC1(C)CC(=O)c2c([nH]c(-c3ccncc3)c2Nc2cc(F)c(F)c(F)c2)C1` [Example 32, 6,6-dimethyl-2-(pyridin-4-yl)-3-[(3,4,5-trifluorophenyl)amino]-1,5,6,7-tetrahydro-4H-indol-4-one], the IC50 was determined as 15.7 nM. Take `O=C1CCCc2[nH]c(-c3ccncc3Cl)c(Nc3ccccc3)c21` [Example 33, 2-(3-chloropyridin-4-yl)-3-(phenylamino)-1,5,6,7-tetrahydro-4H-indol-4-one]: the 50% inhibitory concentration (IC50) amounted to 17.9 nM. The value for `CC1(C)CC(=O)c2c([nH]c(-c3ccnc4[nH]ncc34)c2Nc2ccccc2)C1` [Example 34, 6,6-dimethyl-3-(phenylamino)-2-(1H-pyrazolo[3,4-b]pyridin-4-yl)-1,5,6,7-tetrahydro-4H-indol-4-one] was 31 nM. Turning to `CCC(=O)Nc1cc(-c2[nH]c3c(c2Nc2ccccc2)C(=O)CC(C)(C)C3)ccn1` [Example 35, N-{4-[6,6-dimethyl-4-oxo-3-(phenylamino)-4,5,6,7-tetrahydro-1H-indol-2-yl]pyridin-2-yl}propanamide], the IC50 turned out to be 17.4 nM. The value for `CC(=O)Nc1cc(-c2[nH]c3c(c2Nc2ccccc2)C(=O)CC(C)(C)C3)ccn1` [Example 36, N-{4-[6,6-dimethyl-4-oxo-3-(phenylamino)-4,5,6,7-tetrahydro-1H-indol-2-yl]pyridin-2-yl}acetamide] was 26.4 nM; that for `O=C1CC2(CC2)Cc2[nH]c(-c3ccncc3)c(Nc3ccccc3)c21` [Example 37, 3′-(phenylamino)-2′-(pyridin-4-yl)-1′,7′-dihydrospiro[cyclopropane-1,6′-indol]-4′(5′H)-one] was 8.5 nM; that for `O=C1CCCc2[nH]c(-c3ccncc3)c(Nc3ccc(F)c(F)c3)c21` [Example 38, 3-[(3,4-difluorophenyl)amino]-2-(pyridin-4-yl)-1,5,6,7-tetrahydro-4H-indol-4-one] was 7.97 nM. Regarding `CC(=O)Nc1cc(-c2[nH]c3c(c2Nc2ccccc2)C(=O)CCC3)ccn1` [Example 39, N-{4-[4-oxo-3-(phenylamino)-4,5,6,7-tetrahydro-1H-indol-2-yl]pyridin-2-yl}acetamide], the IC50 was 14.8 nM.

`CC(=O)Nc1cc(-c2[nH]c3c(c2Nc2cccc(F)c2)C(=O)CCC3)ccn1` [Example 40, N-(4-{3-[(3-fluorophenyl)amino]-4-oxo-4,5,6,7-tetrahydro-1H-indol-2-yl}pyridin-2-yl)acetamide]: the concentration for half-maximal inhibition (IC50) is 15.2 nM.

`O=C1CCCc2[nH]c(-c3ccncc3)c(Nc3cccc(F)c3)c21` [Example 41, 3-[(3-fluorophenyl)amino]-2-(pyridin-4-yl)-1,5,6,7-tetrahydro-4H-indol-4-one]: the IC50 was determined as 11.1 nM. The value for `O=C1CCCc2[nH]c(-c3ccncc3)c(Nc3ccc(F)cc3)c21` [Example 42, 3-[(4-fluorophenyl)amino]-2-(pyridin-4-yl)-1,5,6,7-tetrahydro-4H-indol-4-one] was 23 nM; that for `O=C1CC(C(F)(F)F)Cc2[nH]c(-c3ccncc3)c(Nc3cccc(F)c3)c21` (centres unmarked) [Example 43, 3-[(3-fluorophenyl)amino]-2-(pyridin-4-yl)-6-(trifluoromethyl)-1,5,6,7-tetrahydro-4H-indol-4-one] was 9.6 nM. The value for `O=C1CCCc2[nH]c(-c3ccnc(F)c3)c(Nc3ccccc3)c21` [Example 44, 2-(2-fluoropyridin-4-yl)-3-(phenylamino)-1,5,6,7-tetrahydro-4H-indol-4-one] was 17 nM; that for `CC1(C)CC(=O)c2c([nH]c(-c3ccncc3)c2Nc2cccc(-c3ccccc3)c2)C1` [Example 45, 3-(biphenyl-3-ylamino)-6,6-dimethyl-2-(pyridin-4-yl)-1,5,6,7-tetrahydro-4H-indol-4-one] was 20.8 nM. As for `CC1(C)CC(=O)c2c([nH]c(-c3ccnc(C#N)c3)c2Nc2ccccc2)C1` [Example 46, 4-[6,6-dimethyl-4-oxo-3-(phenylamino)-4,5,6,7-tetrahydro-1H-indol-2-yl]pyridine-2-carbonitrile], the figure is 29.1 nM; as for `O=C1CCCc2[nH]c(-c3ccnc(NC(=O)C4CC4)c3)c(Nc3cccc(F)c3)c21` [Example 47, N-(4-{3-[(3-fluorophenyl)amino]-4-oxo-4,5,6,7-tetrahydro-1H-indol-2-yl}pyridin-2-yl)cyclopropanecarboxamide], 13.7 nM. With `O=C1CCCc2[nH]c(-c3ccnc(NC(=O)C4CC4)c3)c(Nc3ccccc3)c21` [Example 48, N-{4-[4-oxo-3-(phenylamino)-4,5,6,7-tetrahydro-1H-indol-2-yl]pyridin-2-yl}cyclopropanecarboxamide], the IC50 is 13.5 nM. The value for `CC(C)C1CC(=O)c2c([nH]c(-c3ccnc(N)c3)c2Nc2ccccc2)C1` (centres unmarked) [Example 49, 2-(2-aminopyridin-4-yl)-3-(phenylamino)-6-(propan-2-yl)-1,5,6,7-tetrahydro-4H-indol-4-one] was 13.1 nM; that for `CC(C)C1CC(=O)c2c([nH]c(-c3ccnc(N)c3)c2Nc2cccc(F)c2)C1` (centres unmarked) [Example 50, 2-(2-aminopyridin-4-yl)-3-[(3-fluorophenyl)amino]-6-(propan-2-yl)-1,5,6,7-tetrahydro-4H-indol-4-one] was 36.3 nM. As for `CC1(C)CC(=O)c2c([nH]c(-c3ccncc3)c2Nc2cccc(C(F)(F)F)c2)C1` [Example 51, 6,6-dimethyl-2-(pyridin-4-yl)-3-{[3-(trifluoromethyl)phenyl]amino}-1,5,6,7-tetrahydro-4H-indol-4-one], the figure is 136 nM; as for `COc1cccc(Nc2c(-c3ccncc3)[nH]c3c2C(=O)CC(C)(C)C3)c1` [Example 52, 3-[(3-methoxyphenyl)amino]-6,6-dimethyl-2-(pyridin-4-yl)-1,5,6,7-tetrahydro-4H-indol-4-one], 99.8 nM; as for `Cc1ccccc1Nc1c(-c2ccncc2)[nH]c2c1C(=O)CC(C)(C)C2` [Example 53, 6,6-dimethyl-3-[(2-methylphenyl)amino]-2-(pyridin-4-yl)-1,5,6,7-tetrahydro-4H-indol-4-one], 82.2 nM.
